# Measurements reported in ChEMBL document CHEMBL2074226, “Molecular evidence of organic ion transporters in the rat adrenal cortex with adrenocorticotropin-regulated zonal expression” (Endocrinology, 2003).
# Target: T1, Solute carrier family 22 member 6 (Rattus norvegicus, UniProt O35956)
# T1 sequence (O35956 whole entry): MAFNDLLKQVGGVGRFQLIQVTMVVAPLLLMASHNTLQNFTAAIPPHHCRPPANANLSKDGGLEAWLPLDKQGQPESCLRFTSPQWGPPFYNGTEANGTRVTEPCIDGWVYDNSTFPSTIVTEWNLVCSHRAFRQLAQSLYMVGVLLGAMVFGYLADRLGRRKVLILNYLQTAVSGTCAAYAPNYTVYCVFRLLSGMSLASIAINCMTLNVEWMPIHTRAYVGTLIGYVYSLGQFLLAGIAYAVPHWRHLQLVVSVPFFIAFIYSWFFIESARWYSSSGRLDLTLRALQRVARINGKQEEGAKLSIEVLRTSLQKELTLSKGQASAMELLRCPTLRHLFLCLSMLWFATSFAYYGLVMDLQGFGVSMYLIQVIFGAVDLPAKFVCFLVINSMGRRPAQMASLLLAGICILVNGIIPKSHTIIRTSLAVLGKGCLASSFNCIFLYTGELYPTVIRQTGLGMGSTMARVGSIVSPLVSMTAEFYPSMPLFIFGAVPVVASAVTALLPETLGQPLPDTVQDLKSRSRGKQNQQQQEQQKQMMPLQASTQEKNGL
# Assay: TP_TRANSPORTER: inhibition of PAH uptake (PAH: 10 uM, Corticosterone: 500 uM) in Xenopus laevis oocytes
# Type: functional, cell-based
# Conditions: oocyte
structure (smiles),measurement,value
C[C@]12C[C@H](O)[C@H]3[C@@H](CCC4=CC(=O)CC[C@@]43C)[C@@H]1CC[C@@H]2C(=O)CO [CORTICOSTERONE],Activity,inhibitor [(at a rough estimate) 25 % of control]
